Assay results reported in patent publication US8211935B2, “Heterocyclic derivatives for modulation of calcium channels” (Vertex Pharmaceuticals Incorporated, priority 2004, dated 2012).
Where two headings read alike, the source gives them in different places.

Target: T1, CaV2.2 (Homo sapiens, UniProt Q00975)
T1 construct: expressed in transfected cells; host or cells: HEK293
Experiment: VIPR optical membrane potential assay with electrical stimulation
Format: cell-based
Description: Antagonist properties of test compounds were assessed as follows. Cells expressing the CaV of interest were placed into microtiter plates. After an incubation period, the cells were stained with fluorescent dyes sensitive to the transmembrane potential. The test compounds were added to the microtiter plate. The cells were stimulated with electrical means to evoke a CaV dependent membrane potential change from unblocked channels, which was detected and measured with trans-membrane potential-sensitive dyes. Antagonists were detected as a decreased membrane potential response to the stimulus.
VIPR® Optical Membrane Potential Assay Method with Electrical Stimulation
The following is an example of how CaV2.2 inhibition activity is measured using the optical membrane potential method. Other subtypes are performed in an analogous mode in a cell line expressing the CaV of interest.
HEK293 cells stably expressing CaV2.2 are plated into 96-well microtiter plates. After an appropriate incubation period, the cells are stained with the voltage sensitive dyes CC2-DMPE/DiSBAC2(3) as follows.
2×CC2-DMPE=20 μM CC2-DMPE: 10 mM CC2-DMPE is vortexed with an equivalent volume of 10% Pluronic, followed by vortexing in required amount of HBSS containing 10 mM HEPES. Each cell plate will require 5 mL of 2×CC2-DMPE. 50 μL of 2×CC2-DMPE is added to wells containing washed cells, resulting in a 10 μM final staining concentration. The cells are stained for 30 minutes in the dark at RT.
Vortex in required amount of Bath X with beta-cyclodextrin. Each 96 well cell plate will require 5 ml of 2×CC2DMPE. Wash plate with ELx405 with Bath X, leaving a residual volume of 50 μL/well. Add 50 μL of 2×CC2DMPE & DISBAC6(3) to each well. Stain for 30 minutes in the dark at RT.
Allow solution to sit for 10 minutes. Slowly mix in 370 mM BaCl2. This solution can be used to solvate compound plates. Note that compound plates are made at 1.5× drug concentration and not the usual 2×. Wash CC2 stained plate, again, leaving residual volume of 50 pt. Add 100 uL/well of the AY17 solution. Stain for 15 minutes in the dark at RT. Run plate on the optical reader.
The instrument comprises a microtiter plate handler, an optical system for exciting the coumarin dye while simultaneously recording the coumarin and oxonol emissions, a waveform generator, a current- or voltage-controlled amplifier, and a device for inserting electrodes in well. Under integrated computer control, this instrument passes user-programmed electrical stimulus protocols to cells within the wells of the microtiter plate.
Insert or use electrodes into each well to be assayed.
Use the current-controlled amplifier to deliver stimulation wave pulses for 3-5 s. Two seconds of pre-stimulus recording are performed to obtain the un-stimulated intensities. Five seconds of post-stimulation recording are performed to examine the relaxation to the resting state.
Data are analyzed and reported as normalized ratios of background-subtracted emission intensities measured in the 460 nm and 580 nm channels. Background intensities are then subtracted from each assay channel. Background intensities are obtained by measuring the emission intensities during the same time periods from identically treated assay wells in which there are no cells. The response as a function of time is then reported as the ratios obtained using the following formula: […]
The data is further reduced by calculating the initial (Ri) and final (Rf) ratios. These are the average ratio values during part or all of the pre-stimulation period, and during sample points during the stimulation period. The response to the stimulus R=Rf/Ri is then calculated.
Control responses are obtained by performing assays in the presence of a compound with the desired properties (positive control), such as mibefradil, and in the absence of pharmacological agents (negative control). Responses to the negative (N) and positive (P) controls are calculated as above.

[1] = Table 3, biological assay data, read-out: IC50

T1 sequence (Q00975 whole entry): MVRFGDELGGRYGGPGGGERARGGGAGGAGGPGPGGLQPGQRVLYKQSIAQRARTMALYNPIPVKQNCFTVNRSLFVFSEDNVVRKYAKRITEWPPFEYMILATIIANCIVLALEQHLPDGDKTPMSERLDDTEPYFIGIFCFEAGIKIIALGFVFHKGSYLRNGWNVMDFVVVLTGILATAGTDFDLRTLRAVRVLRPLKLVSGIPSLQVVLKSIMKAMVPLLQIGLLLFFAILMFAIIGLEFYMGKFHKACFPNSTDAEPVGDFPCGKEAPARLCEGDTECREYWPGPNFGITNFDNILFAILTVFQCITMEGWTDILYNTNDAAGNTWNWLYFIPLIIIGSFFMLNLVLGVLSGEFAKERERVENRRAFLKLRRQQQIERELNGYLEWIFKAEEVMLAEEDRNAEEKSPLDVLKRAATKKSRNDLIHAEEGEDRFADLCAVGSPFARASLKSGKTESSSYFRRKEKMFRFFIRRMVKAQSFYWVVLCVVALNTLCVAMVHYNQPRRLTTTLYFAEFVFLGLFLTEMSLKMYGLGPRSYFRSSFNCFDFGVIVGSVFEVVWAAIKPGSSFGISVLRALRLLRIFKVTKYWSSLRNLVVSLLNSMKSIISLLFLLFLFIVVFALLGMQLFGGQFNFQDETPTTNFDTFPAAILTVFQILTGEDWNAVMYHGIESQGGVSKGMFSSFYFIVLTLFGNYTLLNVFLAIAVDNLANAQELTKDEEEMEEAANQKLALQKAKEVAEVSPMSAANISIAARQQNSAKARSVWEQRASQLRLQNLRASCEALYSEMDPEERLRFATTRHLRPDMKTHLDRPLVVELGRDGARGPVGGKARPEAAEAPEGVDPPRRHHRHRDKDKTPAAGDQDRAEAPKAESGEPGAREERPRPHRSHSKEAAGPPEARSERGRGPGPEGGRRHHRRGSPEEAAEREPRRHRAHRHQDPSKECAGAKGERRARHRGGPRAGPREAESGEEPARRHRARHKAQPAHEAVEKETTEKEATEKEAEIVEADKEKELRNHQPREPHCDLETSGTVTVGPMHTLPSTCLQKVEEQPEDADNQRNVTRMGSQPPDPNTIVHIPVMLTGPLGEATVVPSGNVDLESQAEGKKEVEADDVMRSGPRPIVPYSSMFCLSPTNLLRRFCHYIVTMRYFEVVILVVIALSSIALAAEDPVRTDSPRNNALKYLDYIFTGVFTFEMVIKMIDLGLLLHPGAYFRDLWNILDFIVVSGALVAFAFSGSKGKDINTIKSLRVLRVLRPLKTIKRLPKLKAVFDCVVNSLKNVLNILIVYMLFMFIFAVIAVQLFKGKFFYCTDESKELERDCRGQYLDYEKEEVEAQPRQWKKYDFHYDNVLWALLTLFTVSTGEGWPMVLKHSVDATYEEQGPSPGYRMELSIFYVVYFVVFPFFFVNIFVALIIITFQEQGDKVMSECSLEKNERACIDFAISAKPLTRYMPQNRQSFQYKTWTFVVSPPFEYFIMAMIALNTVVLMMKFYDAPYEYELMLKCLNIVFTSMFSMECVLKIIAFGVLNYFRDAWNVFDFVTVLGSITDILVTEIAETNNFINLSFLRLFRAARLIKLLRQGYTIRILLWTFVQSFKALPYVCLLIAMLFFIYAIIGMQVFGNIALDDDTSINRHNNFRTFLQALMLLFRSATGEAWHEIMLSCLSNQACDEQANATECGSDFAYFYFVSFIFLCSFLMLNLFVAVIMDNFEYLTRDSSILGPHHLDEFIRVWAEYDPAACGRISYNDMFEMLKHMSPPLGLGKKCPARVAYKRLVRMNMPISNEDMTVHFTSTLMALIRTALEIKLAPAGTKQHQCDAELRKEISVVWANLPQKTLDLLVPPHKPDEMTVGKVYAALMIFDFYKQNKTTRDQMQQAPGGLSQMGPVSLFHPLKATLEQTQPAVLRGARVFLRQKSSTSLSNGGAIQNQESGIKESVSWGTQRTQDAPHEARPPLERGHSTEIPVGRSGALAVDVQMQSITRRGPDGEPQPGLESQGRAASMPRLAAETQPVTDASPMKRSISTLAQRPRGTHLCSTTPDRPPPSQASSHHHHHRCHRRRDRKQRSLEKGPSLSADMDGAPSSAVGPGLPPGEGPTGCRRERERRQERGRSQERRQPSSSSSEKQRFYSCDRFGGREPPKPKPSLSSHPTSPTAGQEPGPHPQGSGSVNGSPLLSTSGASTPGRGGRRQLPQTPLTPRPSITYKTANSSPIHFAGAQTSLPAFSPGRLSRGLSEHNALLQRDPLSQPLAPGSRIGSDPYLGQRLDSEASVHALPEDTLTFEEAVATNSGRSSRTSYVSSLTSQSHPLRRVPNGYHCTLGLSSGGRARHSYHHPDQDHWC
T1 sequence (P54284 whole entry partner): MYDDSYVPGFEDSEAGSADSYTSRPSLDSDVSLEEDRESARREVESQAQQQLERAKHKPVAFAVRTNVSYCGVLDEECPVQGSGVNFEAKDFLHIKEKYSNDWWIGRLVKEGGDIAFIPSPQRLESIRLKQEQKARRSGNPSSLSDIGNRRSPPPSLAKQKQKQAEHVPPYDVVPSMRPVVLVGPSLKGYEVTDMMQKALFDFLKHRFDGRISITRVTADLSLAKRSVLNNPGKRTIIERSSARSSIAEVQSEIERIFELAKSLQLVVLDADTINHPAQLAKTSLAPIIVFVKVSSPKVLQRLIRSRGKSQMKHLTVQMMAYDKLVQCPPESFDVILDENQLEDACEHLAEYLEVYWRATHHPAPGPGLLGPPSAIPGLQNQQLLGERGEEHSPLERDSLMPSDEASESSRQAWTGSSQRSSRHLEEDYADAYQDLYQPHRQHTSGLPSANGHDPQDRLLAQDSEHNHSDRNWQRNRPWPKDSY
T1 sequence (P54289 25-946 partner limits assumed): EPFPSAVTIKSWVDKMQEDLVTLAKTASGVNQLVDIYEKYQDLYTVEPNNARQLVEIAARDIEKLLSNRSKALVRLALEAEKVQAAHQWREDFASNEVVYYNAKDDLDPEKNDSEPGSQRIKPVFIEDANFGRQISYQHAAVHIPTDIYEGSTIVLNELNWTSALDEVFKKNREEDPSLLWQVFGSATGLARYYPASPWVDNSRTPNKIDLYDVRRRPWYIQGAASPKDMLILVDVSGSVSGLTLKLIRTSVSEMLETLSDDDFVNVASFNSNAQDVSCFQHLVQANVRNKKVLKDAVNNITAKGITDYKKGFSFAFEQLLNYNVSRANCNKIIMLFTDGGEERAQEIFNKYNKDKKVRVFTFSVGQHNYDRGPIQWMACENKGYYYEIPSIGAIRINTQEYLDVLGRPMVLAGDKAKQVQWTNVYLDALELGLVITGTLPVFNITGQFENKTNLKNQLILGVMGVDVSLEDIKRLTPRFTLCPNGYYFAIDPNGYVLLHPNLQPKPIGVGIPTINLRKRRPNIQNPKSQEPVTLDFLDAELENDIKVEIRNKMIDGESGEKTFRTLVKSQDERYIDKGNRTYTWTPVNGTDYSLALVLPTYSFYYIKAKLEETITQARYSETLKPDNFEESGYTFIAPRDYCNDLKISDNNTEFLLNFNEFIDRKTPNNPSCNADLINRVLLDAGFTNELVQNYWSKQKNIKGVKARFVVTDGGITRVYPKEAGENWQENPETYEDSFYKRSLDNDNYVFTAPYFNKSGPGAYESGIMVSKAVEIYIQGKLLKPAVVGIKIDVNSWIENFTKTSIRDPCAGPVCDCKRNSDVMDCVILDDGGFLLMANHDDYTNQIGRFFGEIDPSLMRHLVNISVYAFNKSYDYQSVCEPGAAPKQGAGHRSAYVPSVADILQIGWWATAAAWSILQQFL
T1 sequence (P54289 947-1103 partner limits assumed): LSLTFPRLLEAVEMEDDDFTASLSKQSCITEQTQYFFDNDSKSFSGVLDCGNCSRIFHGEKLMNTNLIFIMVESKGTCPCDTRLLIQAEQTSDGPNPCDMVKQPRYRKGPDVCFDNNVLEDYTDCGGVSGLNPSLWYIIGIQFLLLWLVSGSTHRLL

Row | SMILES | IC50 [1] | IC50
1 | Cc1c(C(=O)N2CCCCC2C)oc2ccc(S(=O)(=O)N3CCCC(C)C3)cc12 (centres unmarked) [compound 61] | 5 to 20 µM | –
2 | Cc1c(C(=O)NC2CCCCC2)oc2ccc(S(=O)(=O)N3CC(C)CC(C)C3)cc12 (centres unmarked) [compound 62] | < 5 µM | –
3 | Cc1c(C(=O)NCc2cccnc2)oc2ccc(S(=O)(=O)N3CC(C)CC(C)C3)cc12 (centres unmarked) [compound 63] | 5 to 20 µM | –
4 | Cc1c(C(=O)N2CCCCC2)oc2ccc(S(=O)(=O)N3CCCCC3)cc12 [compound 64] | 5 to 20 µM | –
5 | Cc1c(C(=O)N2CCCCC2)oc2ccc(S(=O)(=O)N3CCOCC3)cc12 [compound 65] | < 20 µM | –
6 | O=C(NC1CC1)c1cc2cc(N(Cc3ccccc3)S(=O)(=O)c3ccccc3)ccc2[nH]1 [compound 66] | 5 to 20 µM | –
7 | CC(C)N(C(=O)c1cc2cc(S(=O)(=O)N3CCCCCC3)ccc2o1)C(C)C [compound 67] | < 5 µM | –
8 | Cc1c(C(=O)NCC2CCCO2)[nH]c2ccc(S(=O)(=O)N3CCCCCC3)cc12 (centres unmarked) [compound 68] | 5 to 20 µM | –
9 | Cc1c(C(=O)N2CCCCC2)[nH]c2ccc(S(=O)(=O)N3CCCCCC3)cc12 [compound 69] | 5 to 20 µM | –
10 | CCN1CCN(C(=O)c2oc3ccc(S(=O)(=O)N4CCCCCC4)cc3c2C)CC1 [compound 70] | 5 to 20 µM | –
11 | O=C(NC1CC1)c1cc2cc(NS(=O)(=O)C3CC3)ccc2[nH]1 [compound 71] | < 20 µM | –
12 | CCOC(=O)N1CCN(C(=O)c2cc3cc(S(=O)(=O)N4CCCCCC4)ccc3[nH]2)CC1 [compound 72] | 5 to 20 µM | –
13 | Cc1c(C(=O)NCc2ccccn2)oc2ccc(S(=O)(=O)N3CC(C)CC(C)C3)cc12 (centres unmarked) [compound 73] | < 20 µM | –
14 | Cc1c(C(=O)N2CCCCC2)[nH]c2ccc(S(=O)(=O)N3CCC(C)CC3)cc12 [compound 74] | < 5 µM | –
15 | Cc1c(C(=O)NC2CCCCC2)oc2ccc(S(=O)(=O)N3CCOCC3)cc12 [compound 75] | < 20 µM | –
16 | COc1ccccc1CNC(=O)c1oc2ccc(S(=O)(=O)N3CCCCC3)cc2c1C [compound 76] | 5 to 20 µM | –
17 | CCNC(=O)c1cc2cc(S(=O)(=O)N3CCCCCC3)ccc2[nH]1 [compound 77] | < 5 µM | –
18 | Cc1c(C(=O)NCCC2CCOCC2)[nH]c2ccc(S(=O)(=O)N3CC(C)CC(C)C3)cc12 (centres unmarked) [compound 78] | 5 to 20 µM | –
19 | Cc1c(C(=O)NCCCN2CCOCC2)oc2ccc(S(=O)(=O)N3CC(C)CC(C)C3)cc12 (centres unmarked) [compound 79] | < 5 µM | –
20 | Cc1c(C(=O)NCC2CCCCC2)oc2ccc(S(=O)(=O)N3CCC(C)CC3)cc12 [compound 80] | 5 to 20 µM | –
21 | Cc1c(C(=O)N2CCCC(C)C2)[nH]c2ccc(S(=O)(=O)N3CCC(C)CC3)cc12 (centres unmarked) [compound 81] | < 5 µM | –

Row | SMILES | IC50 [1] | IC50
22 | CC1CC(C)CN(S(=O)(=O)c2ccc3oc(C(=O)N4CCN(C)CC4)cc3c2)C1 (centres unmarked) [compound 82] | 5 to 20 µM | –
23 | CCCCN(C)C(=O)c1cc2cc(S(=O)(=O)N3CCC(C)CC3)ccc2o1 [compound 83] | < 5 µM | –
24 | CCOC(=O)N1CCN(C(=O)c2cc3cc(S(=O)(=O)N4CCC(C)CC4)ccc3[nH]2)CC1 [compound 84] | < 5 µM | –
25 | CCN(CC)S(=O)(=O)c1ccc2oc(C(=O)N3CCc4ccccc4C3)c(C)c2c1 [compound 85] | < 5 µM | –
26 | Cc1ccc(CNC(=O)c2oc3ccc(S(=O)(=O)N4CCCC4)cc3c2C)cc1 [compound 86] | 5 to 20 µM | –
27 | CCN(CC)S(=O)(=O)c1ccc2oc(C(=O)NC3CCCC3)c(C)c2c1 [compound 87] | < 5 µM | –
28 | CCOC(=O)N1CCN(C(=O)c2oc3ccc(S(=O)(=O)N4CCC(C)CC4)cc3c2C)CC1 [compound 88] | < 5 µM | –
29 | Cc1c(C(=O)N(C)Cc2ccccc2)oc2ccc(S(=O)(=O)N3CC(C)CC(C)C3)cc12 (centres unmarked) [compound 89] | – | < 5 µM
30 | CC1CCN(S(=O)(=O)c2ccc3oc(C(=O)NCCCc4ccccc4)cc3c2)CC1 [compound 90] | < 5 µM | –
31 | CC1CC(C)CN(S(=O)(=O)c2ccc3[nH]c(C(=O)N4CCN(C)CC4)cc3c2)C1 (centres unmarked) [compound 91] | 5 to 20 µM | –
32 | CCN(CC)C(=O)c1oc2ccc(S(=O)(=O)N3CCCCCC3)cc2c1C [compound 92] | 5 to 20 µM | –
33 | Cc1c(C(=O)N(C)Cc2ccccc2)oc2ccc(S(=O)(=O)N3CCCCC3)cc12 [compound 93] | < 5 µM | –
34 | Cc1c(C(=O)NCCCc2ccccc2)oc2ccc(S(=O)(=O)N3CCCCCC3)cc12 [compound 94] | 5 to 20 µM | –
35 | CCCCN(C)C(=O)c1oc2ccc(S(=O)(=O)N(CC)CC)cc2c1C [compound 95] | 5 to 20 µM | –
36 | O=C(c1cc2cc(S(=O)(=O)N3CCCCCC3)ccc2o1)N1CCCCC1 [compound 96] | 5 to 20 µM | –
37 | CC1CCN(S(=O)(=O)c2ccc3oc(C(=O)NCCc4ccccc4)cc3c2)CC1 [compound 97] | 5 to 20 µM | –
38 | CC1CCN(S(=O)(=O)c2ccc3[nH]c(C(=O)NCCCc4ccccc4)cc3c2)CC1 [compound 98] | < 5 µM | –
39 | CC1CC(C)CN(S(=O)(=O)c2ccc3oc(C(=O)N4CCCCC4)cc3c2)C1 (centres unmarked) [compound 100] | < 5 µM | –
40 | CC1CCN(S(=O)(=O)c2ccc3[nH]c(C(=O)N4CCCC(C)C4)cc3c2)CC1 (centres unmarked) [compound 101] | < 5 µM | –
41 | Cc1c(C(=O)N2CCCC(C)C2)oc2ccc(S(=O)(=O)N3CCCCCC3)cc12 (centres unmarked) [compound 102] | < 5 µM | –
42 | Cc1c(C(=O)N2CCC(C)CC2)[nH]c2ccc(S(=O)(=O)N3CC(C)CC(C)C3)cc12 (centres unmarked) [compound 103] | < 5 µM | –

Row | SMILES | IC50 [1] | IC50
43 | CC1CCN(S(=O)(=O)c2ccc3[nH]c(C(=O)N4CCCC4)cc3c2)CC1 [compound 104] | 5 to 20 µM | –
44 | O=C(NC1CC1)c1cc2cc(N(CC3CC3)S(=O)(=O)c3ccccc3)ccc2[nH]1 [compound 105] | 5 to 20 µM | –
45 | CC1CCN(S(=O)(=O)c2ccc3oc(C(=O)N4CCC5(CC4)OCCO5)cc3c2)CC1 [compound 106] | – | < 20 µM
46 | CC1CC(C)CN(S(=O)(=O)c2ccc3c(c2)cc(C(=O)N2CCCCC2)n3S(=O)(=O)c2ccc(F)cc2)C1 (centres unmarked) [compound 107] | < 5 µM | –
47 | CC1CCN(S(=O)(=O)c2ccc3[nH]c(CNC4CC4)cc3c2)CC1 [compound 108] | < 5 µM | –
48 | Cc1c(C(=O)NC2CCCc3ccccc32)oc2ccc(S(=O)(=O)N3CCOCC3)cc12 (centres unmarked) [compound 109] | < 20 µM | –
49 | Cc1c(C(=O)NC(C)C)oc2ccc(S(=O)(=O)N3CCCCCC3)cc12 [compound 110] | 5 to 20 µM | –
50 | CC1CCN(S(=O)(=O)c2ccc3oc(C(=O)NCC4CCOCC4)cc3c2)CC1 [compound 111] | 5 to 20 µM | –
51 | CCN(CC)S(=O)(=O)c1ccc2oc(C(=O)N3CCCCC3C)c(C)c2c1 (centres unmarked) [compound 112] | 5 to 20 µM | –
52 | CCCCN(C)C(=O)c1cc2cc(S(=O)(=O)N3CCCCCC3)ccc2o1 [compound 113] | < 5 µM | –
53 | Cc1c(C(=O)NCCN2CCOCC2)oc2ccc(S(=O)(=O)N3CCCCCC3)cc12 [compound 114] | 5 to 20 µM | –
54 | COc1ccc(NS(=O)(=O)c2ccc3oc(C(=O)NC4CC4)c(C)c3c2)cc1 [compound 115] | 5 to 20 µM | –
55 | Cc1c(C(=O)NC(C)C)[nH]c2ccc(S(=O)(=O)N3CCC(C)CC3)cc12 [compound 116] | 5 to 20 µM | –
56 | CCCCN(C)C(=O)c1[nH]c2ccc(S(=O)(=O)N3CCC(C)CC3)cc2c1C [compound 117] | < 5 µM | –
57 | Cc1c(C(=O)NCc2ccccc2)oc2ccc(S(=O)(=O)N3CCC4(CC3)OCCO4)cc12 [compound 118] | < 20 µM | –
58 | CC1CCN(S(=O)(=O)c2ccc3oc(C(=O)NC4CCCC4)cc3c2)CC1 [compound 119] | < 5 µM | –
59 | Cc1c(C(=O)NCc2ccccc2)[nH]c2ccc(S(=O)(=O)N3CCC(C)CC3)cc12 [compound 120] | < 5 µM | –
60 | CC1CCN(S(=O)(=O)c2ccc3[nH]c(CN4CCN(C)CC4)cc3c2)CC1 [compound 121] | 5 to 20 µM | –
61 | CC1CC(C)CN(S(=O)(=O)c2ccc3oc(C(=O)NC4CCCC4)cc3c2)C1 (centres unmarked) [compound 122] | < 5 µM | –
62 | Cc1c(C(=O)NC2CCCCC2C)oc2ccc(S(=O)(=O)N3CCOCC3)cc12 (centres unmarked) [compound 123] | 5 to 20 µM | –
